From ChEMBL document CHEMBL1201862, “PubChem BioAssay data set” (2004) come the findings set out here.

Some test systems named below: HCT-15; KM12; Malme-3M; NCI-H23; NCI-H460; NCI-H522; OVCAR-3; OVCAR-5; OVCAR-8; RPMI-8226; SF-268; SF-295; SK-MEL-28; U-251; SNB-75; UO-31.
Experiment in all cases: DTP human tumour cell line panel, 48 h

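Exposure lasted 48 hours, with cells grown in 96-well plates and compounds tested at five concentrations. GI50 marks 50% less growth.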 The source made the active and inactive calls. Cut-off read from the data, not from the text of the source: active = GI50 up to about 1.1 µM and inactive = higher.

The term GI50 denotes the concentration giving 50% growth inhibition. With `CN(NC1OC(CO)C(O)C(O)C1O)c1ccccc1` (stereo not drawn), the 50% growth inhibitory concentration (GI50) in the assay on HCT-15 is greater than 100 µM; with KM12 it was > 100 µM (inactive); with Malme-3M, > 100 µM (inactive); in the assay on NCI-H23, > 100 µM (inactive); with NCI-H460, > 100 µM (inactive); in the assay with NCI-H522 it was 94.4 µM (inactive). Moreover, the GI50 with OVCAR-3, in the assay on OVCAR-5, with OVCAR-8, in the assay with RPMI-8226, with SF-268 and with SF-295 was > 100 µM (inactive) in each case. The GI50 in the assay with SK-MEL-28 and in the assay on U-251 was > 100 µM (inactive) in each case.

As to `CCCn1cc2c(SC)nc(SC)nc2n1`, the GI50 in the assay with HCT-15 is greater than 100 µM; with KM12 it was > 100 µM (inactive); in the assay on Malme-3M it was > 100 µM (inactive); in the assay with NCI-H23 it was > 100 µM (inactive); with NCI-H460, > 100 µM (inactive); in the assay on OVCAR-5, > 100 µM (inactive). The GI50 with OVCAR-8, in the assay with RPMI-8226, in the assay on SF-268, in the assay with SF-295, in the assay on SK-MEL-28 and in the assay on SNB-75 was > 100 µM (inactive) each time. Further, the GI50 in the assay with U-251 and in the assay with UO-31 was > 100 µM (inactive) throughout.

Take `C/C(=C\c1ccccc1)C(O)C(=O)c1nc2ccc(Cl)cc2nc1O` (stereo not drawn): the GI50 in the assay with HCT-15 was greater than 100 µM; with KM12, > 100 µM (inactive); with Malme-3M, > 100 µM (inactive); in the assay on NCI-H23, > 100 µM (inactive); in the assay with NCI-H460, > 100 µM (inactive); in the assay with NCI-H522, 52 µM (inactive). The GI50 in the assay on OVCAR-3 is 55.2 µM (inactive); in the assay on OVCAR-5 it was > 100 µM (inactive); in the assay with OVCAR-8, > 100 µM (inactive); in the assay with RPMI-8226 it was 12.5 µM (inactive); with SF-268, > 100 µM (inactive); in the assay on SF-295 it was > 100 µM (inactive). For the same compound, the GI50 with SK-MEL-28, with U-251 and in the assay on UO-31 was > 100 µM (inactive) each time.

As for `COc1cc([C@@H]2c3cc4c(cc3[C@@H](NC(=O)c3cccc(N)c3)C3COC(=O)[C@@H]32)OCO4)cc(OC)c1O` (stereo partly drawn), the GI50 with HCT-15 was 1.99 µM; with KM12, 2.42 µM (inactive); in the assay with Malme-3M, 0.942 µM (active); in the assay with NCI-H23, 0.261 µM (active); in the assay on NCI-H460, < 0.01 µM (active); in the assay on OVCAR-3, 4.35 µM (inactive). Besides, the GI50 in the assay with OVCAR-5 was 2.58 µM (inactive); in the assay with OVCAR-8, 1.97 µM (inactive); in the assay with RPMI-8226, 0.507 µM (active); in the assay on SF-268, 0.935 µM (active); in the assay with SF-295, 0.262 µM (active); with SK-MEL-28 it was 8.63 µM (inactive). Further, the results for the GI50 with SNB-75, with U-251 and with UO-31 were 1.48 µM (inactive), 0.242 µM (active) and 9.06 µM (inactive), respectively.

Regarding `CC(=O)NNc1nc(C)c(C(=O)NNC(=O)C(=O)Nc2ccc(Cl)cc2)s1`, the GI50 was greater than 100 µM in the assay on HCT-15; > 100 µM (inactive) in the assay with KM12; > 100 µM (inactive) with Malme-3M; > 100 µM (inactive) with NCI-H23; > 100 µM (inactive) in the assay on NCI-H460; 31.8 µM (inactive) in the assay with NCI-H522. The GI50 was 28.9 µM (inactive) with OVCAR-3; > 100 µM (inactive) with OVCAR-5; > 100 µM (inactive) with OVCAR-8; > 100 µM (inactive) in the assay with RPMI-8226; 49.7 µM (inactive) in the assay on SF-268; > 100 µM (inactive) with SF-295. Also, the GI50 in the assay on SK-MEL-28, in the assay on U-251 and in the assay on UO-31 was > 100 µM (inactive) each time.
